Source: patent US7951836B2, “Substituted phenyl methanone derivatives” (Hoffmann-La Roche Inc., priority 2006, dated 2011)
pIC50: −log10 of the molar value. Where two headings read alike, the source gives them in different places.

Target: T1, mGlyT-1b (Mus musculus, UniProt P28571)
T1 construct: host or cells: Flp-in-CHO
T1 sequence (P28571 1-651 isoform P28571-2): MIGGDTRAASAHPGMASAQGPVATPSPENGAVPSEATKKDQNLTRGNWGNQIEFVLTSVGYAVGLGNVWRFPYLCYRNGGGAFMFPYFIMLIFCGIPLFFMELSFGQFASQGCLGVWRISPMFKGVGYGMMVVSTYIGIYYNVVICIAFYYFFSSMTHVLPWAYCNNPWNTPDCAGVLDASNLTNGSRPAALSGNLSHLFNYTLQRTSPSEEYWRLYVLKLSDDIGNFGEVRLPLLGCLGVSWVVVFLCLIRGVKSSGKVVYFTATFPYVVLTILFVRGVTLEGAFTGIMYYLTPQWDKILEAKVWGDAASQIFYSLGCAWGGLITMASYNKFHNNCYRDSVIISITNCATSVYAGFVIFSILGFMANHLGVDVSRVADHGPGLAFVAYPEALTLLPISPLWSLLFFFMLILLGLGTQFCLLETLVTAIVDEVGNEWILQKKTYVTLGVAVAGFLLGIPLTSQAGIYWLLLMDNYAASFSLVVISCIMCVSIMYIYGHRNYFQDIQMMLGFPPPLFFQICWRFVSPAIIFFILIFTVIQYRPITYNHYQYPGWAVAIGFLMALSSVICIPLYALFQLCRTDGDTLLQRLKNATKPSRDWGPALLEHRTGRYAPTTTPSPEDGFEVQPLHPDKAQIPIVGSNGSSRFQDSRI
Assay: Glycine uptake inhibition assay (mGlyT-1b)
Format: cell-based
Details: for IC50: [3H]-glycine uptake in Flp-in-CHO cells stably transfected with mGlyT1b cDNA, 20 min preincubation at 22° C., read-out: IC50 (μM) at GlyT-1
Experimental: DMEM complete medium: Nutrient mixture F-12 (Gibco Life-technologies), fetal bovine serum (FBS) 5%, (Gibco life technologies), Penicillin/Streptomycin 1% (Gibco life technologies), Hygromycin 0.6 mg/ml (Gibco life technologies), Glutamine 1 mM Gibco life technologies) Uptake buffer (UB): 150 mM NaCl, 10 mM Hepes-Tris, pH 7.4, 1 mM CaCl2, 2.5 mM KCl, 2.5 mM MgSO4, 10 mM (+) D-glucose. Flp-inTM-CHO (Invitrogen Cat n° R758-07) cells stably transfected with mGlyT1b cDNA. Glycine Uptake Inhibition […]) On day 1 mammalian cells, (Flp-inTM-CHO), transfected with […] cDNA, were plated at the density of 40,000 cells/well in complete F-12 medium, without hygromycin in 96-well culture plates. On day 2, the medium was aspirated and the cells were washed twice with uptake buffer (UB). The cells were then incubated for 20 min at 22° C. with either (i) no potential competitor, (ii) 10 mM non-radioactive glycine, (iii) a concentration of a potential inhibitor. A range of concentrations of the potential inhibitor was used to generate data for calculating the concentration of inhibitor resulting in 50% of the effect (e.g. […] The plates were incubated with gentle shaking, and the reaction was stopped by aspiration of the mixture and washing (three times) with ice-cold UB. The cells were lysed with scintillation liquid, shaken 3 hours and the radioactivity in the cells was counted using a scintillation counter.

Row | Structure (SMILES) | IC50 [µM] | pIC50
1 | C[C@H](Oc1ccc(S(C)(=O)=O)cc1C(=O)N1CCC(COc2ccc(Cl)c(Cl)c2)C1)C(F)(F)F (mixture of isomers) [Example 36, rac-[3-(3,4-Dichloro-phenoxymethyl)-pyrrolidin-1-yl]-[5-methanesulfonyl-2-((S)-2,2,2-trifluoro-1-methyl-ethoxy)-phenyl]-methanone] | 0.13 | –
2 | C[C@H](Oc1ccc(S(C)(=O)=O)cc1C(=O)N1CCC(Cc2ccc(C(F)(F)F)cc2)C1)C(F)(F)F (mixture of isomers) [Example 11, rac-[5-Methanesulfonyl-2-((S)-2,2,2-trifluoro-1-methyl-ethoxy)-phenyl]-[3-(4-trifluoromethyl-benzyl)-pyrrolidin-1-yl]-methanone] | 0.11 | –
3 | CS(=O)(=O)c1ccc(-c2ccc(F)cc2)c(C(=O)N2CCC(Cc3ccc(C(F)(F)F)cc3)C2)c1 (racemic) [Example 14, rac-(4′-Fluoro-4-methanesulfonyl-biphenyl-2-yl)-[3-(4-trifluoromethyl-benzyl)-pyrrolidin-1-yl]-methanone] | 0.5 | –
4 | C[C@H](Oc1ccc(S(C)(=O)=O)cc1C(=O)N1CCC(COc2ccc(C#N)cc2)C1)C(F)(F)F (mixture of isomers) [Example 32, rac-4-{1-[5-Methanesulfonyl-2-((S)-2,2,2-trifluoro-1-methyl-ethoxy)-benzoyl]-pyrrolidin-3-ylmethoxy}-benzonitrile] | – | 6.68
5 | CS(=O)(=O)c1ccc(OCC(F)(F)C(F)(F)F)c(C(=O)N2CCC(Cc3ccc(C(F)(F)F)cc3)C2)c1 (racemic) [Example 13, rac-[5-Methanesulfonyl-2-(2,2,3,3,3-pentafluoro-propoxy)-phenyl]-[3-(4-trifluoromethyl-benzyl)-pyrrolidin-1-yl]-methanone] | 0.09 | –
6 | C[C@H](Oc1ccc(S(C)(=O)=O)cc1C(=O)N1CCC(c2ccc(C(F)(F)F)cc2)C1)C(F)(F)F (mixture of isomers) [Example 2, rac-[5-Methanesulfonyl-2-((S)-2,2,2-trifluoro-1-methyl-ethoxy)-phenyl]-[3-(4-trifluoromethyl-phenyl)-pyrrolidin-1-yl]-methanone] | 0.22 | –
7 | C[C@H](Oc1ccc(S(C)(=O)=O)cc1C(=O)N1CCC(COc2ccc([N+](=O)[O-])cc2)C1)C(F)(F)F (mixture of isomers) [Example 33, rac-[5-Methanesulfonyl-2-((S)-2,2,2-trifluoro-1-methyl-ethoxy)-phenyl]-[3-(4-nitro-phenoxymethyl)-pyrrolidin-1-yl]-methanone] | 0.17 | –
8 | CS(=O)(=O)c1ccc(OCC2CCC2)c(C(=O)N2CCC(Cc3ccc(C(F)(F)F)cc3)C2)c1 (racemic) [Example 15, rac-(2-Cyclobutylmethoxy-5-methanesulfonyl-phenyl)-[3-(4-trifluoromethyl-benzyl)-pyrrolidin-1-yl]-methanone] | 0.24 | –
9 | Cc1ccc(OCC2CCN(C(=O)c3cc(S(C)(=O)=O)ccc3O[C@@H](C)C(F)(F)F)C2)cc1 (mixture of isomers) [Example 30, rac-[5-Methanesulfonyl-2-((S)-2,2,2-trifluoro-1-methyl-ethoxy)-phenyl]-(3-p-tolyloxymethyl-pyrrolidin-1-yl)-methanone] | 0.27 | –
10 | CS(=O)(=O)c1ccc(OC2CCCC2)c(C(=O)N2CCC(Cc3ccc(C(F)(F)F)cc3)C2)c1 (racemic) [Example 16, rac-(2-Cyclopentyloxy-5-methanesulfonyl-phenyl)-[3-(4-trifluoromethyl-benzyl)-pyrrolidin-1-yl]-methanone] | 0.32 | –
11 | C[C@H](Oc1ccc(S(C)(=O)=O)cc1C(=O)N1CCC(COc2ccc(OC(F)(F)F)cc2)C1)C(F)(F)F (mixture of isomers) [Example 35, rac-[5-Methanesulfonyl-2-((S)-2,2,2-trifluoro-1-methyl-ethoxy)-phenyl]-[3-(4-trifluoromethoxy-phenoxymethyl)-pyrrolidin-1-yl]-methanone] | 0.13 | –
12 | C[C@H](Oc1ccc(S(C)(=O)=O)cc1C(=O)N1CCC(COc2ccc(Cl)cc2)C1)C(F)(F)F (mixture of isomers) [Example 29, rac-[3-(4-Chloro-phenoxymethyl)-pyrrolidin-1-yl]-[5-methanesulfonyl-2-((S)-2,2,2-trifluoro-1-methyl-ethoxy)-phenyl]-methanone] | – | 6.70
13 | COc1cccc(OCC2CCN(C(=O)c3cc(S(C)(=O)=O)ccc3O[C@@H](C)C(F)(F)F)C2)c1 (mixture of isomers) [Example 37, rac-[5-Methanesulfonyl-2-((S)-2,2,2-trifluoro-1-methyl-ethoxy)-phenyl]-[3-(3-methoxy-phenoxymethyl)-pyrrolidin-1-yl]-methanone] | 0.17 | –
14 | C[C@H](Oc1ccc(S(C)(=O)=O)cc1C(=O)N1CCC(COc2ccc(-c3ccccc3)cc2)C1)C(F)(F)F (mixture of isomers) [Example 31, rac-[3-(Biphenyl-4-yloxymethyl)-pyrrolidin-1-yl]-[5-methanesulfonyl-2-((S)-2,2,2-trifluoro-1-methyl-ethoxy)-phenyl]-methanone] | 0.45 | –
